Source: the supplement of paper PMC5908809

What was measured:
[1] = system: normal NK cells expanded with K562-aAPC; assay: percent inhibition of viability; higher = more inhibition; details: 72 h, IL-2 2.5 ng/mL
Description: (§1)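 Drug sensitivity and resistance testing on K562-aAPC-expanded normal NK cells: 5 concentrations (10-fold steps over a 10,000-fold range), 72 h at 37 °C, viability by CellTiter-Glo normalised to DMSO and benzethonium chloride controls; DSS from the fitted curve.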

DERL-7 (IL-2 2.5 ng/mL) [2] = assay: as above; details: 72 h
IMC-1 (IL-2 20 ng/mL) [3] = assay: as above; details: 72 h
KAI3 (IL-2 2.5 ng/mL) [4] = assay: as above; details: 72 h
KHYG-1 (IL-2 2.5 ng/mL) [5] = assay: as above; details: 72 h
NK-92 (IL-2 2.5 ng/mL) [6] = assay: as above; details: 72 h
NK-YS (IL-2 2.5 ng/mL) [7] = assay: as above; details: 72 h
NKL (IL-2 2.5 ng/mL) [8] = assay: as above; details: 72 h
SNK-6 (IL-2 2.5 ng/mL) [9] = assay: as above; details: 72 h
YT (IL-2 2.5 ng/mL) [10] = assay: as above; details: 72 h
[11] = system: normal primary NK cells, pool 1 (3 donors) (IL-2 2.5 ng/mL); assay: as above; details: 72 h
[12] = system: normal primary NK cells, pool 1 (3 donors), resting (IL-2 0 ng/mL); assay: as above; details: 72 h
[13] = system: normal primary NK cells, pool 2 (3 donors) (IL-2 2.5 ng/mL); assay: as above; details: 72 h
[14] = system: normal primary NK cells, pool 3 (3 donors) (IL-2 2.5 ng/mL); assay: as above; details: 72 h
[15] = system: normal NK cells expanded with K562-aAPC; assay: drug sensitivity score (DSS) (DSS units); higher = more sensitive; extreme values may be limits of the assay; details: 72 h; IL-2 2.5 ng/mL
Description: as §1

DERL-7 (IL-2 2.5 ng/mL) [16] = assay: as above; details: 72 h
IMC-1 (IL-2 20 ng/mL) [17] = assay: as above; details: 72 h
KAI3 (IL-2 2.5 ng/mL) [18] = assay: as above; details: 72 h
KHYG-1 (IL-2 2.5 ng/mL) [19] = assay: as above; details: 72 h
NK-92 (IL-2 2.5 ng/mL) [20] = assay: as above; details: 72 h
NK-YS (IL-2 2.5 ng/mL) [21] = assay: as above; details: 72 h
NKL (IL-2 2.5 ng/mL) [22] = assay: as above; details: 72 h
SNK-6 (IL-2 2.5 ng/mL) [23] = assay: as above; details: 72 h
YT (IL-2 2.5 ng/mL) [24] = assay: as above; details: 72 h
[25] = system: normal primary NK cells, pool 1 (3 donors) (IL-2 2.5 ng/mL); assay: as above; details: 72 h
[26] = system: normal primary NK cells, pool 1 (3 donors), resting (IL-2 0 ng/mL); assay: as above; details: 72 h
[27] = system: normal primary NK cells, pool 2 (3 donors) (IL-2 2.5 ng/mL); assay: as above; details: 72 h
[28] = system: normal primary NK cells, pool 3 (3 donors) (IL-2 2.5 ng/mL); assay: as above; details: 72 h
DERL-7 (IL-2 2.5 ng/mL) [29] = assay: relative IC50 (inflection point of fitted viability curve, relative to fitted max inhibition); higher = less sensitive; details: 72 h
Description: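 Drug sensitivity and resistance testing: 5 concentrations over a 10,000-fold range, 72 h at 37 °C, viability by CellTiter-Glo normalised to DMSO and benzethonium chloride controls. IC50 is the inflection point of a logistic fit (min fixed at 0, max fitted), so it is relative to the fitted maximal inhibition. Kept only where fitted max inhibition is at least 50%.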

N#CC1(c2ccc(NC(=O)c3cccnc3NCc3ccncc3)cc2)CCCC1 [Apatinib] (max concentration tested 10000 nM)
percent inhibition of viability [%]
Details | 1 nM | 10 nM | 100 nM | 1000 nM | 10000 nM
DERL-7 (IL-2 2.5 ng/mL) [2] | -0.33 | -0.49 | -2.76 | -4.82 | 1.97
IMC-1 (IL-2 20 ng/mL) [3] | -6.4 | -0.28 | -6.01 | 0.8 | 2.01
KAI3 (IL-2 2.5 ng/mL) [4] | 3.83 | 2.76 | 6.74 | 10.3 | 12.3
KHYG-1 (IL-2 2.5 ng/mL) [5] | 4.44 | 2.43 | 2.62 | 6.69 | 19
NK-92 (IL-2 2.5 ng/mL) [6] | -3.67 | -7.24 | 2.24 | 10.8 | 52.7
NK-YS (IL-2 2.5 ng/mL) [7] | -1 | 2.11 | 4.05 | 9.52 | 12.6
NKL (IL-2 2.5 ng/mL) [8] | -16.2 | -14.6 | -14.8 | -14.5 | -12.3
SNK-6 (IL-2 2.5 ng/mL) [9] | 21 | 12.9 | 7.35 | 12.6 | 28.4
YT (IL-2 2.5 ng/mL) [10] | -0.29 | 0.42 | 2.63 | 7.54 | 7.83
[1] | -1.56 | -5.13 | -0.99 | 0.76 | 2.66
[11] | -14.6 | -10.1 | -4.55 | -2.69 | 6.98
[12] | -2.35 | 4.05 | 8.46 | 11.4 | 31.2
[13] | -4.33 | -2.31 | -5.54 | -1.25 | -5.6
[14] | -6.46 | -8.45 | -1.68 | -7.82 | 1.12

Details | drug sensitivity score
DERL-7 (IL-2 2.5 ng/mL) [16] | 0
IMC-1 (IL-2 20 ng/mL) [17] | 0
KAI3 (IL-2 2.5 ng/mL) [18] | 0.17
KHYG-1 (IL-2 2.5 ng/mL) [19] | 0.9
NK-92 (IL-2 2.5 ng/mL) [20] | 4.58
NK-YS (IL-2 2.5 ng/mL) [21] | 0.26
NKL (IL-2 2.5 ng/mL) [22] | 0
SNK-6 (IL-2 2.5 ng/mL) [23] | 0
YT (IL-2 2.5 ng/mL) [24] | 0
[15] | 0
[25] | 0
[26] | 2.45
[27] | 0
[28] | 0

COc1cc([C@@H]2c3cc4c(cc3[C@@H](O[C@@H]3O[C@@H]5CO[C@@H](C)O[C@H]5[C@H](O)[C@H]3O)[C@H]3COC(=O)[C@H]23)OCO4)cc(OC)c1O [Etoposide] (max concentration tested 10000 nM)
percent inhibition of viability [%]
Details | 1 nM | 10 nM | 100 nM | 1000 nM | 10000 nM
DERL-7 (IL-2 2.5 ng/mL) [2] | -3.7 | 3.15 | 32.8 | 97 | 82.8
IMC-1 (IL-2 20 ng/mL) [3] | -6.15 | 1.75 | 34.8 | 97.9 | 99.5
KAI3 (IL-2 2.5 ng/mL) [4] | 5.94 | 13.2 | 41.3 | 76.4 | 78
KHYG-1 (IL-2 2.5 ng/mL) [5] | -3.98 | -9.64 | 3.44 | 87.1 | 101
NK-92 (IL-2 2.5 ng/mL) [6] | -7.31 | -6.78 | 5.02 | 67.3 | 101
NK-YS (IL-2 2.5 ng/mL) [7] | 3.6 | 4.01 | 29.1 | 77.3 | 83.9
NKL (IL-2 2.5 ng/mL) [8] | -3.26 | 4.8 | 80.7 | 94.3 | 101
SNK-6 (IL-2 2.5 ng/mL) [9] | -11.1 | 0.92 | -0.88 | 74.3 | 96.2
YT (IL-2 2.5 ng/mL) [10] | -3.45 | -8.19 | -5.67 | 44.7 | 98.2
[1] | -5.25 | -8.84 | -1.72 | 49.7 | 65.7
[11] | -1.51 | 1.58 | 11.1 | 14.3 | 79.7
[12] | 0.93 | 10 | 22.8 | 40 | 90.5
[13] | -2.19 | -0.27 | 0.34 | 8.73 | 53.7
[14] | 0.28 | -3.78 | 10.1 | 11.7 | 48.3

Details | drug sensitivity score
DERL-7 (IL-2 2.5 ng/mL) [16] | 21.9
IMC-1 (IL-2 20 ng/mL) [17] | 22.2
KAI3 (IL-2 2.5 ng/mL) [18] | 19.3
KHYG-1 (IL-2 2.5 ng/mL) [19] | 16.2
NK-92 (IL-2 2.5 ng/mL) [20] | 13.7
NK-YS (IL-2 2.5 ng/mL) [21] | 17.7
NKL (IL-2 2.5 ng/mL) [22] | 28
SNK-6 (IL-2 2.5 ng/mL) [23] | 13.8
YT (IL-2 2.5 ng/mL) [24] | 11.1
[15] | 9.42
[25] | 6.78
[26] | 11.3
[27] | 4.34
[28] | 4.07

NC1(c2ccc(-c3nc4ccn5c(=O)[nH]nc5c4cc3-c3ccccc3)cc2)CCC1 [MK-2206]
Details | relative IC50 [nM]
DERL-7 (IL-2 2.5 ng/mL) [29] | 103
